pIC50: −log10 of the molar value. Read-outs that look alike come from different tables or passages of the source.
Legend:
[1] = system: RT112/84 human bladder tumor cell-derived xenograft (CDX) model; experiment: Anti-tumor activity in RT112/84 mouse xenograft (CDX) model (Example 7); assay type: in vivo; conditions: Compound A 10 mg/kg oral once per day
Experimental: (§1) All mouse studies were approved by the Institutional Animal Care and Use Committee (IACUC) based on guidelines from the National Institutes of Health (NIH). Mice were maintained under pathogen-free conditions, and food and water were provided ad libitum.
The anti-tumor effect of Compound A and irinotecan hydrochloride as single-agents or in combination was assessed in the RT112/84 human bladder tumor cell-derived xenograft (CDX) model. Cells were expanded in RPMI-1640 (Gibco, Catalog Number 11875093) with 10% fetal bovine serum. These cells were free of mycoplasma and authenticated by STR profiling. Five million cells in log growth phase were resuspended in Hanks Balanced Salt Solution containing 50% Matrigel and implanted subcutaneously into the flank of each recipient female Crl:NU-Foxnlnu mouse. Mice were housed in microisolator cages with corn cob bedding with additional enrichment consisting of sterile nesting material (Innovive) and Bio-huts (Bio-Serv). Water (Innovive) and diet (Teklad Global 19% Protein Extruded Diet 2919, Irradiated) were provided ad libitum. The environment was maintained on a 12-hour light cycle at approximately 68-72° F. and 40-60% relative humidity.
Tumor Volume (TV) was calculated using the following formula: TV (mm^3)=(width×width×length)/2. Tumor growth inhibition (TGI) was calculated by [(TV controlfinal−TV treatedfinal)/(TV controlfinal−TV controlinitial)×100]. TV was analyzed for statistical significance utilizing GraphPad Prism version 10.0.3. Repeated Measures 2-Way ANOVA with Tukey's Multiple Comparisons was utilized, and P-values were derived from data collected on Day 14 (date of Vehicle group termination) and were considered statistically significant if less than 0.05. Tumor regression was calculated by using the percent change in tumor volume from the final tumor volume measurement from Day 73 when compared to the initial tumor volume from Day 1. Tumor regression was defined as reduced TV on Day 73 compared to Day 1. Tumor regression rate was defined as the percentage of animals per group with tumor regression.
Mean tumor volume at dosing start was approximately 249 mm^3, with ten mice randomized to each treatment group. Mice were dosed orally, once per day, with Vehicle, Compound A at 10 mg/kg, or dosed for 3 consecutive days followed by 4 days holiday by intraperitoneal (IP) injection of Compound B at 5 mg/kg, or combination of Compound A and Compound B. The vehicle group was a combination of Vehicle A (for Compound A, 0.5% 400 cps methylcellulose with 0.5% Tween-80 in sterile water) and Vehicle B (for irinotecan hydrochloride, Saline).

[2] = system: LMSU (RCB1062) human gastric tumor cell-derived xenograft (CDX) models; experiment: Anti-tumor activity in LMSU gastric mouse xenograft (CDX) model (Example 9); assay type: in vivo; conditions: Compound A 10 mg/kg oral once per day
Experimental: as §1
The anti-tumor effect of Compound A and irinotecan hydrochloride as single-agents or in combination was assessed in the LMSU (RCB1062) human gastric tumor cell-derived xenograft (CDX) models. LMSU was expanded in HamF10 with 10% fetal bovine serum. Cells were free of mycoplasma and authenticated by STR profiling, and ten million cells in log growth phase were resuspended in Hanks Balanced Salt Solution containing 50% Matrigel and implanted subcutaneously into the flank of each recipient female Crl:NU-Foxn1nu mouse. Mice were housed in microisolator cages with corn cob bedding with additional enrichment consisting of sterile nesting material (Innovive) and Bio-huts (Bio-Serv). Water (Innovive) and diet (Teklad Global 19% Protein Extruded Diet 2919, Irradiated) were provided ad libitum. The environment was maintained on a 12-hour light cycle at approximately 68-72° F. and 40-60% relative humidity.
Tumor Volume (TV) was calculated using the following formula: TV (mm^3)=(width×width×length)/2. Tumor growth inhibition (TGI) was calculated by [(TV controlfinal−TV treatedfinal)/(TV controlfinal−TV controlinitial)×100]. TV was analyzed for statistical significance utilizing GraphPad Prism version 10.2.2. Repeated Measures 2-Way ANOVA with Dunnet's Multiple Comparisons was utilized, and P-values were derived from data collected on the date of Vehicle group termination and were considered statistically significant if less than 0.05.
Mean tumor volume at dosing start was approximately 185 mm^3, with seven mice randomized to each treatment group. Mice were dosed orally, once per day, with Vehicle, Compound A at 10 mg/kg, or dosed for 3 consecutive days followed by 4 days holiday by intraperitoneal (IP) injection of Compound B at 5 mg/kg or 10 mg/kg, or combination of Compound A and Compound B. The vehicle group was a combination of Vehicle A (for Compound A, 0.5% 400 cps methylcellulose with 0.5% Tween-80 in sterile water) and Vehicle B (for irinotecan hydrochloride, Saline).

[3] = system: SKGT4; experiment: 10-day proliferation screen with Compound A pre-treatment (Example 3); assay type: cell-based; conditions: read-out: Growth IC50
[4] = system: Panc 03.27 MTAP Knock-out Clone 31; experiment: as above; assay type: cell-based; conditions: Homo sapiens, read-out: Growth IC50
Experimental: (§2) A 10-day proliferation screen was performed in 15 pancreatic, non-small cell lung, and bladder cancer cell lines: 10 MTAP null and 5 MTAP wild-type. Optimal cell seeding for all cell lines was determined by assessing the growth over a range of seeding densities in a 384-well format to identify conditions that permitted proliferation for 10 days. […] Cells were incubated at 37° C. with 5% CO2 for 4 days to allow for target engagement of the pre-treatment compound. Maintaining the pre-treatment condition, cells were also treated with an 11-point, three-fold titration series of compounds from a chemically diverse library of 424 compounds. The combination compound concentrations ranged from 0.2 nM to 14,679 nM. A plate of cells was harvested at the time of combination compound addition to quantify the number of cells at the start of the combination (T0). For cell quantification, the harvested cells were lysed with CellTiter-Glo (CTG) (Promega) reagent according to the manufacturer's protocol and the chemiluminescent signal was detected on a Synergy Neo plate reader (ThermoFisher, serial #140715A). CTG estimates cell number through detection of cellular ATP levels. Cells were incubated with the drug combinations at 37° C. with 5% CO2 for an additional 6 days for a total of a 10-day assay including the pre-treatment. Cells were then lysed with CTG and the chemiluminescent signal was measured. CTG values obtained after the 10-day treatment were background subtracted, expressed as a percent of the T0 value, and plotted against compound concentration. Data were fit with a four-parameter equation to generate concentration response curves. Growth IC50 values and maximal growth inhibition were compared between the DMSO and the Compound A pre-treated cells for each combination titration. Combination hit calling was based on the observation of >2-fold shift in growth IC50 and/or greater than 20% […] in growth inhibition.

[5] = system: Panc 03.27 Parent; experiment: as above; assay type: cell-based; conditions: Homo sapiens, read-out: Growth IC50
Experimental: as §2

[6] = PANC-03-27, Cmpd A pre-treatment 15 nM

Row | SMILES | Day 14 TGI [1] | Day 14 TV (mean) ([1]; initial TV 249, vehicle 1069) | TGI ([1]; irinotecan 5 mg/kg IP 3 days on/4 days off) | Day 11 TGI [2] | TGI [2] | Tumor Regression Rate on Day 11 [2] | Day 11 TV (mean) ([2]; initial TV 186, vehicle 1018) | pIC50 ([3]; SKGT4, Cmpd A pre-treatment 150 nM) | pIC50 ([3]; SKGT4, DMSO pre-treatment) | pIC50 [4, 6] | pIC50 ([4]; PANC-03-27, DMSO pre-treatment) | pIC50 [5, 6] | pIC50 ([5]; PANC-03-27, DMSO pre-treatment)
1 | Nc1nc(=O)n(-c2ccccc2Cl)c2nc(C(F)(F)F)ccc12 [Compound A] | 53% | 632 mm^3 | 53% | −6% | no significant TGI | 0% | 1069 mm^3 |  |  |  |  |  | 
2 | NS(=O)(=O)c1ccc(S(=O)(=O)Nc2cccc3c(Cl)c[nH]c23)cc1 [Indisulam, N-(3-chloro-1H-indol-7-yl)benzene-1,4-disulfonamide] |  |  |  |  |  |  |  | 6.29 | 5.97 | 6.06 | 5.66 | 6.21 | 6.09
